We go through seven compounds from PubChem BioAssay (NCI).

Holding throughout (test): NCI tumour cell line growth inhibition, 48 h
The subject of assay [1] is 786-0 renal.
The test system of assay [2] is DU-145 prostate.
The subject of assay [3] is HCT-116 colon.
Assay [4] relates to HOP-62 NSCLC.
Assay [5] concerns HT29 colon.
Assay [6] deals with KM12 colon.
Assay [7] relates to LOX IMVI melanoma.
The subject of assay [8] is M14 melanoma.
In assay [9] the test system is MDA-MB-231 breast.
Assay [10] relates to MDA-N.
Assay [11] concerns NCI-H226 lung.
The subject of assay [12] is NCI-H522 lung.
Assay [13] deals with OVCAR-3 ovarian.
For assay [14], the system named is RXF 393 renal.
Assay [15] deals with SNB-19 CNS.
For assay [16], the system named is SW-620 colon.
Assay [17] has as its system TK-10 renal.
For assay [18], the system named is UACC-62 melanoma.
Assay [19] deals with UO-31 renal.

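All cell lines were grown in 96-well plates and treated with compound for 48 hours. TGI: total growth inhibition.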

As for `COC(=O)C1(Cc2cccc(C)c2)Cc2c(C)cccc2C1=O` (stereo not drawn), the TGI in assay [1] is more than 100 µM; in assay [2], more than 100 µM; in [3], more than 100 µM; in assay [4], more than 100 µM; in assay [5], 89.7 µM; in [6] it was more than 100 µM. For the same compound, the TGI in assay [7] was more than 100 µM; in assay [8] it was more than 100 µM; in assay [9], more than 100 µM; in assay [10], 34.5 µM; in assay [11], more than 100 µM; in assay [12], 73.3 µM. Further, the TGI in assay [13], in [14], in [15], in assay [16], in [17] and in assay [18] was more than 100 µM each time. The TGI in [19] was more than 100 µM.
For the compound `CNCCCNC1(c2cc3ccccc3s2)CCCCC1`, the TGI in assay [1] was determined as 9.87 µM; in assay [2] it was 24.2 µM; in assay [3], 14.9 µM; in assay [4] it was 22.4 µM; in [5], 7.94 µM; in [6] it was 16.3 µM. For the same compound, the TGI in assay [7] was found to be 9.94 µM; in [8] it was 8.06 µM; in assay [9] it was 12.6 µM; in assay [10], 5.85 µM; in assay [11] it was 36.6 µM; in assay [12], 19.1 µM. For the same compound, the TGI was 25.4 µM in assay [13]; 12.2 µM in assay [14]; 24.8 µM in [15]; 26.3 µM in assay [16]; 19.4 µM in assay [17]; 3.87 µM in [18]. This compound also returned a TGI in assay [19] of 7.36 µM.
Regarding `COc1cc([C@@H]2c3cc4c(cc3[C@@H](OC3OC5COC(C)OC5C(OC(=O)CN5CCN(C)CC5)C3OC(=O)CN3CCN(C)CC3)C3COC(=O)[C@@H]32)OCO4)cc(OC)c1OC(=O)CN1CCN(C)CC1` (stereo partly drawn), the TGI was 52.8 µM in [1]; more than 100 µM in assay [2]; more than 100 µM in assay [3]; more than 100 µM in assay [4]; more than 100 µM in assay [5]; more than 100 µM in [6]. The TGI in assay [7], in [8], in assay [9], in assay [10], in assay [11] and in assay [12] was more than 100 µM in each case. Also, the TGI in assay [13], in [14], in assay [15], in [16], in assay [17] and in [18] was more than 100 µM each time. In assay [19], this compound came in with a TGI of more than 100 µM.
Consider `O=[N+]([O-])C(=C(N1CCCCC1)N1CCCCC1)/C(Cl)=C(\Cl)[N+](=O)[O-]`, for which the TGI in assay [1] came out at 10.2 µM; in assay [2] it was 7.72 µM; in [3] it was 7.54 µM; in assay [4], 31.4 µM; in assay [5] it was 12.5 µM; in [6] it was 41.7 µM. The TGI came out at 5.13 µM in assay [7]; 21.7 µM in [8]; 14.8 µM in [9]; 13.3 µM in assay [10]; 45.7 µM in assay [11]; 3.37 µM in assay [12]. In addition, the TGI in assay [13] stood at 10.7 µM; in assay [14] it was 2.94 µM; in [15] it was 36 µM; in assay [16] it was 28.7 µM; in assay [17], 10.1 µM; in [18], 29.2 µM. Moreover, the TGI in [19] was 8.11 µM.
As for `Cc1ccc2c(c1)C(C1Cc3cccc(C)c3C1=O)OC2=O` (stereo not drawn), the TGI in assay [1], in [2], in assay [3], in assay [4], in assay [5] and in [6] was more than 100 µM each time. For the same compound, the TGI in [7], in assay [8], in [9], in assay [10], in [11] and in [12] was more than 100 µM throughout. Moreover, the TGI in [13], in assay [14], in [15], in assay [16], in assay [17] and in assay [18] was more than 100 µM in each case. This compound also returned a TGI in [19] of more than 100 µM.
As for `COc1ccc2nc3cc([N+](=O)[O-])ccc3c(Nc3ccc(S(=O)(=O)N=C(N)N)cc3)c2c1`, the TGI was more than 100 µM in assay [1]; more than 100 µM in assay [2]; 80.5 µM in [3]; more than 100 µM in assay [4]; more than 100 µM in assay [5]; 57.5 µM in assay [6]. The TGI was more than 100 µM in assay [7]; more than 100 µM in [8]; more than 100 µM in assay [9]; more than 100 µM in [10]; more than 100 µM in [11]; 41.3 µM in [12]. Besides, the TGI is 72.6 µM in [13]; more than 100 µM in [14]; more than 100 µM in assay [15]; more than 100 µM in [16]; more than 100 µM in assay [17]; 46.9 µM in assay [18]. This compound gave a TGI in [19] of more than 100 µM.
On to `CCOC(=O)c1[nH]cc(C)c1-c1c[nH]c2ccccc12`, for which the TGI is more than 100 µM in assay [1]; more than 100 µM in [2]; more than 53.2 µM in [3]; more than 100 µM in assay [4]; more than 82.6 µM in [5]; more than 100 µM in assay [6]. The TGI is 40.2 µM in [7]; more than 100 µM in assay [8]; more than 58.9 µM in assay [9]; more than 83.8 µM in [10]; 67.6 µM in assay [11]; more than 81.8 µM in assay [12]. In addition, the TGI is more than 76.8 µM in assay [13]; more than 80 µM in [14]; more than 100 µM in [15]; more than 100 µM in assay [16]; more than 80.3 µM in assay [17]; more than 100 µM in [18]. Further, the TGI in assay [19] is 48.1 µM.
